Strand notation (5' to 3'): a small letter for the sugar, then the base; units joined by * are phosphorothioate-linked, units joined directly phosphodiester-linked; [ ] holds rarer units or linkages, { } end groups; capitals alone tell only the bases. k = constrained ethyl (cEt); [5mC] = 5-methylcytosine; d = 2'-deoxy (DNA)
Tested on: human SMAD7 mRNA
Test: Antisense inhibition of human SMAD7 mRNA expression in Hep3B cells by 3-10-3 cEt gapmers, 10,000 nM, electroporation (Example 2)
Assay type: cell-based
Conditions: approximately 24 hours
Summary of the method: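 qRT-PCR (RTS5062) of SMAD7 mRNA, normalised to RIBOGREEN total RNA, gave percent inhibition relative to untreated controls. Hep3B cells at 20,000 per well received 10,000 nM oligonucleotide by electroporation, with ~24 h treatment.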

[1] = Hep3B cells, electroporation with 10,000 nM antisense oligonucleotide, SMAD7 mRNA by RT-PCR (RTS5062), relative to untreated control cells
[2] = Hep3B cells, 10,000 nM antisense oligonucleotide, electroporation, RT-PCR primer probe set RTS5062, relative to untreated control cells
[3] = Hep3B cells, electroporation with 10,000 nM antisense oligonucleotide, primer probe set RTS5062, relative to untreated control cells
[4] = Hep3B cells, electroporation, 10,000 nM antisense oligonucleotide, RTS5062, relative to untreated control cells
[5] = Hep3B cells, electroporation with 10,000 nM antisense oligonucleotide, RTS5062, percent inhibition of SMAD7 mRNA relative to untreated control cells
[6] = SMAD7 mRNA, Hep3B cells, 10,000 nM antisense oligonucleotide, electroporation, primer probe set RTS5062, relative to untreated control cells

829872 (antisense kT*kG*kT*d[5mC]*d[5mC]*dA*dG*dT*dG*dT*dG*dG*d[5mC]*kG*kG*kA) [compound 829872]
% Inhibition (SMAD7 mRNA, Hep3B cells, electroporation with 10,000 nM antisense oligonucleotide, primer probe set RTS5062, relative to untreated control cells): 50%

800022 (kG*kG*kA*dA*dG*dA*dG*d[5mC]*d[5mC]*dT*dT*dG*dG*k[5mC]*k[5mC]*kT; antisense) [compound 800022]
% Inhibition [1]: 30%

799918 (antisense k[5mC]*kA*kT*dT*dT*dA*dT*d[5mC]*dT*d[5mC]*dG*d[5mC]*d[5mC]*kA*kT*kG) [compound 799918]
% Inhibition [2]: 16%

798920 (kG*k[5mC]*k[5mC]*dT*dG*d[5mC]*dT*d[5mC]*dA*dG*d[5mC]*dT*d[5mC]*kA*k[5mC]*kG; antisense) [compound 798920]
% Inhibition [1]: 58%

798906 (kG*k[5mC]*kT*dA*d[5mC]*d[5mC]*dG*dG*d[5mC]*dT*dG*dT*dT*kG*kA*kA; antisense) [compound 798906]
% Inhibition [2]: 0%

799233 (k[5mC]*kA*kT*dT*d[5mC]*dA*dG*d[5mC]*dT*dA*dG*dG*dT*kG*kA*kT; antisense) [compound 799233]
% inhibition of SMAD7 mRNA expression [3]: 28%

799653 (antisense kA*k[5mC]*k[5mC]*d[5mC]*dA*d[5mC]*dT*d[5mC]*dA*dA*dA*d[5mC]*d[5mC]*kA*kG*kG) [compound 799653]
% inhibition of SMAD7 mRNA expression [4]: 51%

799208 (kT*kG*kA*dT*dG*d[5mC]*dT*dT*dA*dT*dA*dA*dA*kA*k[5mC]*kG; antisense) [compound 799208]
% Inhibition [3]: 15%

798897 (kG*kG*k[5mC]*dG*dG*dG*dT*dG*dT*dA*dG*d[5mC]*dA*k[5mC]*kT*kG; antisense) [compound 798897]
% Inhibition [2]: 60%

799623 (kT*kA*k[5mC]*dA*dA*dT*d[5mC]*dT*d[5mC]*d[5mC]*dT*dG*dG*kA*kA*kG; antisense) [compound 799623]
% Inhibition [5]: 45%

772551 (antisense kT*kT*k[5mC]*dA*dG*dA*dT*d[5mC]*d[5mC]*dG*d[5mC]*d[5mC]*dT*k[5mC]*kG*kG) [compound 772551]
% Inhibition [6]: 39%

799180 (antisense kG*kA*kA*dA*dA*dA*dT*dA*dG*d[5mC]*dT*dT*dA*kT*kG*kT) [compound 799180]
% Inhibition [3]: 20%

799604 (k[5mC]*kA*kT*d[5mC]*dA*d[5mC]*d[5mC]*dT*d[5mC]*d[5mC]*d[5mC]*d[5mC]*dT*k[5mC]*k[5mC]*kA; antisense) [compound 799604]
% Inhibition [5]: 0%

830196 (antisense kT*kT*kA*dA*dT*dG*dG*d[5mC]*d[5mC]*d[5mC]*dA*dG*d[5mC]*k[5mC]*k[5mC]*kA) [compound 830196]
% Inhibition [1]: 31%

798901 (k[5mC]*k[5mC]*kT*d[5mC]*dT*dA*dG*d[5mC]*d[5mC]*dA*dG*d[5mC]*dA*k[5mC]*kG*kG; antisense) [compound 798901]
% Inhibition [1]: 30%

799582 (kA*k[5mC]*kA*dA*dA*d[5mC]*d[5mC]*dT*dT*d[5mC]*d[5mC]*dG*dA*kA*kA*kG; antisense) [compound 799582]
% inhibition of SMAD7 mRNA expression [4]: 19%

798893 (kT*kG*kG*d[5mC]*d[5mC]*d[5mC]*d[5mC]*dA*dG*d[5mC]*d[5mC]*d[5mC]*dT*kT*k[5mC]*kA; antisense) [compound 798893]
% Inhibition [2]: 77%

829793 (kT*k[5mC]*kT*dT*d[5mC]*d[5mC]*d[5mC]*dG*dT*dA*dA*dG*dA*kT*kT*k[5mC]; antisense) [compound 829793]
% Inhibition [6]: 41%

790775 (kT*kA*k[5mC]*dA*dA*dG*dG*dT*dG*dA*dA*dA*dG*kT*kT*kA; antisense) [compound 790775]
% Inhibition [6]: 7%

799349 (kA*kG*k[5mC]*dG*d[5mC]*dA*d[5mC]*dT*d[5mC]*dG*dG*dG*dA*kG*kA*kT; antisense) [compound 799349]
% Inhibition [1]: 0%

830188 (antisense k[5mC]*k[5mC]*kA*d[5mC]*dT*dT*dA*dG*d[5mC]*dA*dA*dG*dG*kA*kG*k[5mC]) [compound 830188]
% Inhibition [1]: 50%

798943 (antisense k[5mC]*kG*kA*dG*dG*dA*d[5mC]*dG*dA*dG*dA*dA*dG*kA*kA*kG) [compound 798943]
% inhibition of SMAD7 mRNA expression [3]: 13%
